Laboratory results published in patent US4345984A, “Novel prostaglandin analogues and process for making same” (The Procter & Gamble Company, priority 1981, dated 1982).
Read-outs that look alike come from different tables or passages of the source.

Test system: stomach mucosa
Experiment: cytoprotective activity in rats (ethanol-induced stomach mucosa lesions)
Type: in vivo, Sprague-Dawley rats
Conditions: for % Protection: optically pure compounds of Example XIX; for % Protection / response vs control in vivo at 5 mg/kg / inhibition in vivo at 5 mg/kg: 5 mg per kg oral, half hour before absolute ethanol 10 ml per kg oral; for response vs control in vivo at 5 mg/kg / inhibition in vivo at 5 mg/kg: Rattus norvegicus, 1 h; for response vs control in vivo at 5 mg/kg: average lesion length as % of control animals; for inhibition in vivo at 5 mg/kg: lesions vs control, read-out: LESIONS % reduction; for cytoprotective activity (in words): comparison of enantiomers and racemate, Table III
Experimental: A number of the 7-oxa prostanoic acid derivatives has been tested for cytoprotective activity in rats. In this test, Sprague-Dawley rats are fasted for 24 hours prior to the pretreatment. The pretreatment is oral administration of a 5 mg per kg body weight dose of the prostanoid in 2.5 ml of a vehicle consisting of Tween 80 (0.75%) and the balance water. The control animals are given 2.5 ml of the vehicle, without prostanoid. A half hour after the pretreatment, absolute ethanol is administered orally to the animals, in a dose of 10 ml per kg body weight. One hour later the animals are sacrificed, their stomachs dissected out, opened along the greater curvature and the mucose examined for lesions. The average lesion length is expressed as percentage of the average lesion length found in the stomach mucosa of control animals.
Importantly, this test measures the active cytoprotective properties of the prostanoids, independent of the gastric secretion inhibition that these compounds may or may not show. The test is discussed more fully by Robert et al., Gastroenterology 77 (1979) 433, incorporated herein by reference.
methyl-7-oxa-9-oxo-Prostanoate derivatives were tested for cytoprotective properties. The compounds differed with respect to the nature of the C13 -C14 bond (triple, cis or trans double, or single), the substituent(s) at the 15-position and at the 16-position. […]
The optically pure compounds of Example XIX were tested for cytoprotective activity. The following results were obtained (Table III).

[1] = methyl-7-oxa-9-alpha-hydroxy prost-13,14-ynoate derivatives
[2] = 7-oxa-9-oxo-methyl prostanoate derivatives

| Structure (SMILES) | response vs control in vivo at 5 mg/kg [2] | inhibition in vivo at 5 mg/kg [2] | other results |
| --- | --- | --- | --- |
| CCCCC[C@@H](O)C#CC1CCC(=O)C1OCCCCCC(=O)OC (stereo partly drawn) [(19), methyl-(R)-15-hydroxy-7-oxa-9-oxo-prost-13,14-ynoate] |  |  | % Protection: -34% |
| CCCCCC(=O)C#C[C@H]1CC[C@H](O)[C@@H]1OCCCCCC(=O)OC (relative stereo) [triple oxo H,H (7-oxa-9-alpha-hydroxy), methyl 9-alpha-hydroxy-7-oxa-15-oxo-prost-13,14-ynoate] |  |  | response vs control in vivo at 5 mg/kg [1]: 20%; inhibition in vivo at 5 mg/kg [1]: 80% |
| CCCCCCC#C[C@H]1CCC(=O)[C@@H]1OCCCCCC(=O)OC (relative stereo) [triple H,H H,H (7-oxa-9-oxo)] | 81% | 19% |  |
| CCCCCC(O)C#C[C@H]1CCC(=O)[C@@H]1OCCCCCC(=O)OC (relative stereo) [triple (R,S)OH H,H (7-oxa-9-oxo), methyl 15-hydroxy-7-oxa-9-oxo-prost-13,14-ynoate] | 31% | 69% |  |
| CCCCCC(=O)/C=C/[C@H]1CCC(=O)[C@@H]1OCCCCCC(=O)OC (relative stereo) [trans oxo H,H (7-oxa-9-oxo)] | 118% | -18% |  |
| CCCCCCC#C[C@H]1CC[C@H](O)[C@@H]1OCCCCCC(=O)OC (relative stereo) [triple H,H H,H (7-oxa-9-alpha-hydroxy)] |  |  | response vs control in vivo at 5 mg/kg [1]: 90%; inhibition in vivo at 5 mg/kg [1]: 10% |
| CCCCCC(C)(O)/C=C/[C@H]1CCC(=O)[C@@H]1OCCCCCC(=O)OC (relative stereo) [trans (R,S)OH,Me H,H (7-oxa-9-oxo)] | 54% | 46% |  |
| CCCCCC(=O)C#C[C@H]1CC[C@H](O)[C@@H]1OCCCCCC(=O)O (relative stereo) |  |  | response vs control in vivo at 5 mg/kg [1]: 7%; inhibition in vivo at 5 mg/kg [1]: 93% |
| CCCCCC(O)/C=C\[C@H]1CCC(=O)[C@@H]1OCCCCCC(=O)OC (relative stereo) [cis (R,S)OH H,H (7-oxa-9-oxo), methyl-15-hydroxy-7-oxa-9-oxo-cis-prost-13-14-enoate] | 31% | 69% |  |
| CCCCCC(=O)CC[C@H]1CCC(=O)[C@@H]1OCCCCCC(=O)OC (relative stereo) [single oxo H,H (7-oxa-9-oxo)] | 128% | -28% |  |
| CCCCC(C)(C)C(=O)C#C[C@H]1CCC(=O)[C@@H]1OCCCCCC(=O)OC (relative stereo) [triple oxo Me,Me (7-oxa-9-oxo)] | 16% | 84% |  |
| CCCCCC(=O)C#C[C@H]1CCC(=O)[C@@H]1OCCCCCC(=O)OC (relative stereo) [triple oxo H,H (7-oxa-9-oxo), methyl-9,15-dioxo-7-oxa-prost-13,14-ynoate] | 4% | 96% | cytoprotective activity (in words): the same |
| CCCCCC(C)(O)C#C[C@H]1CCC(=O)[C@@H]1OCCCCCC(=O)OC (relative stereo) [triple (R,S)OH,Me H,H (7-oxa-9-oxo)] | 82% | 18% |  |
| CCCCCC(C)(O)CC[C@H]1CCC(=O)[C@@H]1OCCCCCC(=O)OC (relative stereo) [single (R,S)OH,Me H,H (7-oxa-9-oxo)] | 67% | 33% |  |
| CCCCC(C)(C)C(O)C#C[C@H]1CC[C@H](O)[C@@H]1OCCCCCC(=O)OC (relative stereo) |  |  | response vs control in vivo at 5 mg/kg [1]: 83%; inhibition in vivo at 5 mg/kg [1]: 17% |
| CCCCCC(C)(O)/C=C\[C@H]1CCC(=O)[C@@H]1OCCCCCC(=O)OC (relative stereo) [cis (R,S)OH,Me H,H (7-oxa-9-oxo)] | 71% | 29% |  |
| CCCCC[C@H](O)C#CC1CCC(=O)C1OCCCCCC(=O)OC (stereo partly drawn) [(18), methyl-(S)-15-hydroxy-7-oxa-9-oxo-prost-13,14-ynoate] |  |  | cytoprotective activity (in words): high cytoprotective activity; % Protection: 96% |
| CCCCCC(=O)/C=C\[C@H]1CCC(=O)[C@@H]1OCCCCCC(=O)OC (relative stereo) [cis oxo H,H (7-oxa-9-oxo), methyl-9,15-dioxo-7-oxa-cis-prost-13,14-enoate] | 113% | -13% |  |
| CCCCCC(O)C#C[C@H]1CC[C@H](O)[C@@H]1OCCCCCC(=O)OC (relative stereo) [methyl-9-alpha-hydroxy-15-hydroxy-7-oxa-Prost-13,14-ynoate] |  |  | response vs control in vivo at 5 mg/kg [1]: 93%; inhibition in vivo at 5 mg/kg [1]: 7% |
